Measurements from patent US9527857B2, “HSPC-sparing treatments for RB-positive abnormal cellular proliferation” (G1 Therapeutics, Inc., priority 2013, dated 2016).

How the values were obtained:
CDK4/CyclinD1 = CDK4/CyclinD1 (Homo sapiens (Human), UniProt P11802); assay: CDK4/cyclinD1 kinase assay (Nanosyn, microfluidic Caliper platform); format: biochemical; details: Table 3; read-out: CDK4/CycD1 IC50
Method: Selected compounds disclosed herein were tested in CDK4/cyclinD1, CDK2/CycA and CDK2/cyclinE kinase assays by Nanosyn (Santa Clara, Calif.) to determine their inhibitory effect on these CDKs. The assays were performed using microfluidic kinase detection technology (Caliper Assay Platform). The compounds were tested in 12-point dose-response format in singlicate at Km for ATP. Phosphoacceptor substrate peptide concentration used was 1 μM for all assays and Staurosporine was used as the reference compound for all assays. Specifics of each assay are as described below:
CDK4/CyclinD1: Enzyme concentration: 1 nM; ATP concentration: 200 μM; Incubation time: 10 hr.

CDK6/CycD3 = CDK6/CycD3 (Homo sapiens (Human), UniProt Q00534); assay: CDK6/CycD3 kinase assay; format: biochemical
Sequence of CDK6/CycD3 (Q00534 whole entry, species assumed): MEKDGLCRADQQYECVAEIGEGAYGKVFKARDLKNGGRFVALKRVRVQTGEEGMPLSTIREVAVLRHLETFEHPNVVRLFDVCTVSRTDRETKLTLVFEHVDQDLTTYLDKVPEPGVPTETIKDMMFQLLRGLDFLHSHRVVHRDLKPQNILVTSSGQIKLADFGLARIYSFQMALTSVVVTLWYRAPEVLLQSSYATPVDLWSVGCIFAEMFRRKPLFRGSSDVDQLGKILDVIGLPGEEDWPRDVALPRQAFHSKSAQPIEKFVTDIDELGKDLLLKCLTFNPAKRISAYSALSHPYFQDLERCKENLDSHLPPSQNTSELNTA
Sequence of CDK6/CycD3 (P30281 whole entry partner, species assumed): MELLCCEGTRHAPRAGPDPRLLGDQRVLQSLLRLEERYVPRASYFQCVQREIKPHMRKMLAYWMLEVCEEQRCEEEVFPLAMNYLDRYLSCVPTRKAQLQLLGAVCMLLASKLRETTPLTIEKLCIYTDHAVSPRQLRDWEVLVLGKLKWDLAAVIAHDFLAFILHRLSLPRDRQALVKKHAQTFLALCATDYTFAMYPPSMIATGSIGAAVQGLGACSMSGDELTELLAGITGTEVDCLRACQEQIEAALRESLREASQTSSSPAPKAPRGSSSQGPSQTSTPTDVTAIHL

[1] = tested on: MCF7 (breast adenocarcinoma, Rb-positive); assay: Cellular proliferation assay (CellTiter-Glo), MCF7; format: cell-based
Method: The MCF7 cells were seeded in Costar (Tewksbury, Mass.) 3903 96 well tissue culture treated white walled/clear bottom plates. A nine point dose response dilution series from 10 uM to 1 nM was performed and cell viability was determined after six days of compound treatment as indicated using the CellTiter-Glo® luminescent cell viability assay (CTG; Promega, Madison, Wis., United States of America) following the manufacturer's recommendations. Plates were read on a BioTek (Winooski, Vt.) Syngergy2 multi-mode plate reader. The Relative Light Units (RLU) were plotted as a result of variable molar concentration and data was analyzed using Graphpad (LaJolla, Calif.) Prism 5 statistical software to determine the EC50 for each compound.
(§1) Cellular proliferation assays were conducted using the following cancer cell lines: MCF7 (breast adenocarcinoma—Rb-positive), ZR-75-1 (breast ductal carcinoma—Rb-positive), H69 (human small cell lung cancer—Rb-negative) cells, or A2058 (human metastatic melanoma cells—Rb-negative). These cells were seeded in Costar (Tewksbury, Mass.) […] 96 well tissue culture treated white walled/clear bottom plates. Cells were treated with the compounds of Table 1 as nine point dose response dilution series from 10 uM to 1 nM. Cells were exposed to compounds and then cell viability was determined after either four (H69) or six (MCF7, ZR75-1, A2058) days as indicated using the CellTiter-Glo® luminescent cell viability assay (CTG; Promega, Madison, Wis., United States of America) following the manufacturer's recommendations. Plates were read on BioTek (Winooski, Vt.) Syngergy2 multi-mode plate reader. The Relative Light Units (RLU) were plotted as a result of variable molar concentration and data was analyzed using Graphpad (LaJolla, Calif.) Prism 5 statistical software to determine the EC50 for each compound.

[2] = tested on: ZR-75-1 (breast ductal carcinoma, Rb-positive); assay: Cellular proliferation assay (CellTiter-Glo), ZR-75-1; format: cell-based
Method: as §1

[3] = Mouse pharmacokinetics (oral gavage / intravenous); format: in vivo, mice; details: plasma, 30 mg/kg, read-out: F (oral bioavailability)
Method: Blood samples were taken at 0, 0.25, 0.5, 1.0, 2.0, 4.0, and 8.0 hours post dosing and the plasma concentrations were determined by HPLC.

HSPCs (LKS+) [4] = assay: Bone marrow HSPC proliferation by EdU incorporation and flow cytometry; format: in vivo; details: 150 mg/kg oral gavage, mice
Method: . JCNI 2012; 104(6):476-487 (FIG. 2A). […].
Mice were then sacrificed at the indicated times (0, 12, 24, 36, or 48 hours following compound administration), and bone marrow was harvested (n=3 mice per time point), as previously described (Johnson et al. J. Clin. Invest. (2010) 120(7), 2528-2536). Four hours before the bone marrow was harvested, mice were treated with 100 μg of EdU by intraperitoneal injection (Invitrogen). Bone marrow mononuclear cells were harvested and immunophenotyped using previously described methods and percent EdU positive cells were then determined (Johnson et al. J. Clin. Invest. (2010) 120(7), 2528-2536). In brief, HSPCs were identified by expression of lineage markers (Lin−), Sca1 (S+), and c-Kit (K+).
Four hours before animals were sacrificed and the bone marrow was harvested, mice were treated with 100 μg of EdU by intraperitoneal injection. Three mice per group were sacrificed at 12 hours and the remaining three animals per group were sacrificed at 24 hours. Results are shown in FIG. 5A as the ratio of EdU positive cells for treated animals at 12 or 24 hour time points compared to control.
Further experiments were completed with Compound T examining dose response and longer periods of compound treatment. […] […].
Both compounds were administered at 150 mg/kg by oral gavage. One hour prior to harvesting bone marrow, EdU was IP injected to label cycling cells. Bone marrow was harvested at 12, 24, 36, and 48 hours after compound treatment and the percentage of EdU positive HSPC cells was determined at each time point.

[5] = tested on: MMTV-c-neu (Rb-positive) tumors; assay: MMTV-c-neu HER2-driven (Rb-positive) luminal breast cancer mouse model; format: in vivo, mice
From the text: A HER2-driven model (Rb-positive) of breast cancer (Muller W J, Sinn E, Pattengale P K, Wallace R, Leder P. Single-step induction of mammary adenocarcinoma in transgenic mice bearing the activated c-neu oncogene. Cell 1988; 54: 105-15), that expresses c-neu (the mouse ortholog of human HER2) driven by the MMTV promoter was used in the following example. This model was chosen because previous studies in murine (Yu Q, Geng Y, Sicinski P. Specific protection against breast cancers by cyclin D1 ablation. Nature 2001; 411: 1017-21; Landis M W, Pawlyk B S, Li T, Sicinski P, Hinds P W. Cyclin D1-dependent kinase activity in murine development and mammary tumorigenesis. Cancer Cell 2006; 9: 13-22; Reddy H K, Mettus R V, Rane S G, Grana X, Litvin J, Reddy E P. Cyclin-dependent kinase 4 expression is essential for neu-induced breast tumorigenesis. Cancer Res 2005; 65: 10174-8; Yu Q, Sicinska E, Geng Y, Ahnstrom M, Zagozdzon A, Kong Y, et al. Requirement for CDK4 kinase function in breast cancer. Cancer Cell 2006; 9: 23-32.) and human HER2-positive breast cancer (An H X, Beckmann M W, Reifenberger G, Bender H G, Niederacher D. Gene amplification and overexpression of CDK4 in sporadic breast carcinomas is associated with high tumor cell proliferation. Am J Pathol 1999; 154: 113-8; Samady L, Dennis J, Budhram-Mahadeo V, Latchman DS. Activation of CDK4 gene expression in human breast cancer cells by the Brn-3b POU family transcription factor. Cancer Biol Ther 2004; 3: 317-23; Takano Y, Takenaka H, Kato Y, Masuda M, Mikami T, Saegusa M, et al. Cyclin D1 overexpression in invasive breast cancers: correlation with cyclin-dependent kinase 4 and oestrogen receptor overexpression, and lack of correlation with mitotic activity.
MMTV-neu mice were generated and observed post-lactation, with tumors observed with a median latency of approximately 25 weeks. Mice were enrolled in therapy studies when tumors reached a standard size (50-60 mm3) that permitted easy serial assessment. […] Tumor volumes were calculated by the formula, Volume=[(width)^2×length]/2. Tumor-bearing mice were euthanized at the indicated times due to predefined morbidity, tumor ulceration, or a tumor size of more than 1.5 cm in diameter.
Tumors were serially assessed weekly using caliper measurements. Therapeutic intervention began once tumors reached 40-64 mm^3. Tumor volume was calculated using the formula […]. All three compounds were administered orally via medicated diets (100 mg/kg/d). Medicated diets were administered for 28 consecutive days and then stopped. RECIST criteria were used to assess objective response rates.

[6] = tested on: HS68 cells (human fibroblast, Rb-positive); assay: Cellular wash-out experiment, HS68 cells; format: cell-based; details: in vitro wash-out experiment
Method: […]. On day 3, one set of treated cell samples were harvested in triplicate (0 Hour sample). Remaining cells were washed two times in PBS-CMF and returned to culture media lacking test compound. Sets of samples were harvested in triplicate at 24, 40, and 48 hours.
(§2) Upon harvesting cells, samples were stained with propidium iodide staining solution and samples run on Dako Cyan Flow Cytometer. The fraction of cells in G0-G1 DNA cell cycle versus the fraction in S-phase DNA cell cycle was determined using FlowJo 7.2 0.2 analysis.

[7] = tested on: human renal proximal tubule epithelial cells (Rb-positive); assay: Cellular wash-out experiment, renal proximal tubule epithelial cells; format: cell-based; details: 300 nM
Method: Alternatively, the same experiment was done using normal Renal Proximal Tubule Epithelial Cells (Rb-positive) obtained from American Type Culture Collection (ATCC, Manassas, Va.). Cells were grown in an incubator at 37° C. in a humidified atmosphere of 5% CO2 in Renal Epithelial Cell Basal Media (ATCC) supplemented with Renal Epithelial Cell Growth Kit (ATCC) in 37° C. humidified incubator.
as §2

[8] = PD0332991 pharmacokinetics and HSPC arrest in humans; format: in vivo; details: single administration
Method: When calculated half-life was longer than the duration of the experiment, the half-life was expressed as >the longest incubation time. The calculated half-life is also listed in parentheses. […] The timely resumption of cellular proliferation is necessary for tissue repair, and therefore an overly long period of arrest is undesirable in healthy cells such as HSPCs. The characteristics of a CDK4/6 inhibitor that dictate its arresting duration are its pharmacokinetic (PK) and enzymatic half-lives. Once initiated, a G1-arrest in vivo will be maintained as long as circulating compound remains at an inhibitory level, and as long as the compound engages the enzyme. […] These observations may explain the severe granulocytopenia seen with PD0332991 in the clinic.

HSPCs (LKS+) [9] = details: single oral dose 150 mg/kg, mice; Roberts et al.; cited from earlier work
[10] = tested on: myeloid progenitor cells (LKS-); details: single oral dose 150 mg/kg, mice; Roberts et al.; cited from earlier work
[11] = Schwartz et al. (2011); cited from earlier work

Sequence of CDK4/CyclinD1 (P11802 whole entry, species assumed): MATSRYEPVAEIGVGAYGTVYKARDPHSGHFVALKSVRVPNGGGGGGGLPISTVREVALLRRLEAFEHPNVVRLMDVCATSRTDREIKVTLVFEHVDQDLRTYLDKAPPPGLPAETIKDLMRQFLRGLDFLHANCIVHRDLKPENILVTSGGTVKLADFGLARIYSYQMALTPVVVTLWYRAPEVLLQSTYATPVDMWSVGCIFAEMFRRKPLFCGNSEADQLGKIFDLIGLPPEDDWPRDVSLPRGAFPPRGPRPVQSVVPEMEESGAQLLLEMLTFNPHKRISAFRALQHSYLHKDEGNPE
Sequence of CDK4/CyclinD1 (P24385 whole entry partner, species assumed): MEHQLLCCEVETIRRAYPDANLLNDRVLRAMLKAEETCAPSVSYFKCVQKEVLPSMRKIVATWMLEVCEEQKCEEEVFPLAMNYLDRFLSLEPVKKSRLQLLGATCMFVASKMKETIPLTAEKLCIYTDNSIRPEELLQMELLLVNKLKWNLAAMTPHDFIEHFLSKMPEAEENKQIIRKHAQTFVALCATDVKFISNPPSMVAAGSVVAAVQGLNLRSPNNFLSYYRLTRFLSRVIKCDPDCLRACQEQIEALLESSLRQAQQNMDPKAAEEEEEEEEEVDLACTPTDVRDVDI

| Compound | IC50 (CDK4/CyclinD1) | IC50 (CDK6/CycD3) | inhibition of cellular proliferation of MCF-7 cells (FIGS. 21-24) [1] | inhibition of cellular proliferation of ZR75-1 cells (FIGS. 25-28) [2] | bioavailability [3] | EdU incorporation into HSPCs at 12 and 24 hours (FIG. 5A) (HSPCs (LKS+) [4]) | tumor volume during a 28 day course of therapy ([5]; 100 mg/kg/d in chow) | objective response rate ([5]; 100 mg/kg/day medicated diet, 28 days, RECIST criteria) | duration of cell cycle arrest after compound is removed from the cell culture media [6] | return to baseline levels of cell division after wash out compared to compounds T, Q, GG, or U [7] | duration of cell cycle arrest of HSPC in humans [8] | duration of sustained reduction in HSPC EdU incorporation (FIG. 2) (HSPCs (LKS+) [9]) | time post oral dosing at which HSPC return to baseline cell division (FIG. 2) (HSPCs (LKS+) [9]) | duration of sustained reduction in myeloid progenitor cell EdU incorporation (FIG. 2) [10] | time post oral dosing at which myeloid progenitor cells return to baseline cell division (FIG. 2) [10] | PK half-life in humans [11] |
| --- | --- | --- | --- | --- | --- | --- | --- | --- | --- | --- | --- | --- | --- | --- | --- | --- |
| CC(C)N1CCN(c2ccc(Nc3ncc4cc5n(c4n3)C3(CCCCC3)CNC5=O)nc2)CC1 [GG] | 0.7 to 1 nM | 5 to 6 nM | significant inhibition of cellular proliferation | significant inhibition of cellular proliferation | 52% | reduction in EdU incorporation at 12 hours which was starting to return to normal at 24 hours | marked decrease in tumor volume | 85% | – | – | – | – | – | – | – | – |
| CC(=O)c1c(C)c2cnc(Nc3ccc(N4CCNCC4)cn3)nc2n(C2CCCC2)c1=O [PD0332991, 6-acetyl-8-cyclopentyl-5-methyl-2-(5-piperazin-1-yl-pyridin-2-ylammino)-8H-pyrido-[2,3-d]-pyrimidin-7-one] | – | – | significant inhibition of cellular proliferation | significant inhibition of cellular proliferation | – | – | – | – | more than forty hours | took significantly longer to return to baseline levels of cell division | approximately one week | greater than 36 hours | 48 h | greater than 36 hours | 48 h | 27 h |
